# In paper PMC7462607 (eLife, 2020):
# Values joined by “and” are separate entries in the source; they are usually repeats but may differ in a detail not shown here. Identical values can stand only once. Like-named read-outs stand apart in the source and are kept apart here.
# Experiments:
# A549 cells = assay: Cell viability assay (CellTiter-Glo), A549; assay type: cell-based, Homo sapiens; conditions: for CellTiter-Glo (ATP): A549, raw signal, Rep 1-3
# Description: (§1) Seven hundred A549 cells or 1,000 HCT-116 cells in 50 µL of medium were plated per well in 384-well flat clear bottom white polystyrene TC-treated microplates (Corning, Corning, USA). After overnight attachment, cells were dosed with a serial dilution of HQ461 with a D300e digital dispenser (Tecan, Männedorf, Switzerland). Cell survival was measured 72 hr later using CellTiter-Glo luminescent cell viability assay kit (Promega, Madison, USA) following vendor instructions. Luminescence was recorded by EnVison multimode plate reader (PerkinElmer, Waltham, USA). IC50 was determined with GraphPad Prism using baseline correction (by normalizing to DMSO control), the asymmetric (five parameter) equation, and least squares fit.
# [1] = test system: A549 cells stably expressing 3xFLAG-CDK12 WT/G731E/G731R; assay: Cell viability assay, A549 cells stably expressing wild-type or G731E/R mutant CDK12; assay type: cell-based; conditions: Homo sapiens
# Description: as §1
# An ORF encoding CDK12 isoform 2 (NM_015083.3) was PCR amplified from A549 cDNA and cloned into a pCDNA3.1-N-3xFLAG vector which was derived from the pCDNA3.1 vector. G731E and G731R mutations in CDK12 were introduced by overlap extension PCR. After sequencing verification, wild-type and mutant 3xFLAG-CDK12 sequences were subcloned into lentiCas9-Blast (Addgene 52962) by replacing the Cas9 ORF with 3xFLAG-CDK12. The resulting lenti-EF1α−3xFLAG-CDK12-P2A-BSD WT/GE/GR constructs were packaged into lentiviral vectors to transduce A549 cells. Stable cell lines were obtained by selection with 20 µg/ml of blasticidin.
# CCNK = assay: Western blotting of CCNK protein level in A549 cells; assay type: cell-based, Homo sapiens
# Description: Standard SDS-PAGE and western blotting procedures were used with the following modifications. For preparation of total lysates, cells were rinsed with DPBS to remove residual medium and then lysed in 20 mM HEPES-NaOH, pH 8.0, 10 mM NaCl, 2 mM MgCl2, 1% SDS freshly supplemented with 0.5 units/µL of benzonase and 1x cOmplete, Mini, EDTA-free protease inhibitor cocktail (Roche, Bazel, Switzerland). Protein concentrations of the resulting lysates were quantified by the BCA method. Between 30 to 60 µg of proteins were resolved on SDS-PAGE and transferred to nitrocellulose membranes with a pore size of 0.5 μm. Membranes were blocked in 5% nonfat milk PBST (0.1% v/v Tween-20) for 30 min before blotting with antibodies. The following primary antibodies were used by dilution in 5% nonfat milk PBST: anti-NRF2 (Abcam, Cambridge, UK, ab62352, 1:4,000), anti-β-Actin-HRP (Huaxingbio, Beijing, China, HX18271,1:10,000), anti-α-Tubulin-HRFP (MBL Life Science, Japan, PM054-7, 1:10,000), anti-DDB1 (Abcam, Cambridge, UK, ab109027, 1:10,000), anti-RBX1 (Proteintech, Wuhan, China, 14895–1-AP, 1:5,000), anti-UBE2G1 (Proteintech, Wuhuan, China, 12012–1-AP, 1:2,000), anti-CDK12 (Cell Signaling Technology, Danvers, USA, 11973S,1:4,000), anti-CCNK (Bethyl lab, Montgomery, USA, A301-939A-T,1:4,000), anti-FLAG-HRP (Sigma-Aldrich, MO, USA, A8592, 1:10,000), anti-HA (BioLegend, San Diego, USA, 901533, 1:4,000), anti-RNA polymerase II subunit B1 (phospho CTD Ser-2) clone 3E10 (Sigma-Aldrich, MO, USA, 04–1571, 1:5,000), and anti-RNA polymerase II CTD repeat YSPTSPS antibody clone 8WG16 (Abcam, Cambridge, UK, ab817, 1:5,000). The following HRP-linked secondary antibodies were used by dilution in PBST: anti-rabbit IgG (Cell Signaling Technology, Danvers, USA, 7074S, 1:10,000), anti-mouse IgG (Zsbio, Beijing, China, ZB-2305, 1:10,000), and anti-rat IgG, (Sino Biological, Beijing, China, SSA005, 1:10,000). M5 HiPer ECL Western HRP Substrate (Mei5bio, Beijing, China, MF074-01) was used for the detection of HRP enzymatic activity. Western blot images were taken with a VILBER FUSION FX7 imager.
# [2] = target: T1, CDK12 kinase domain/CCNK-3xHA (Homo sapiens, UniProt Q9NYV4); assay: Co-expression of 3xFLAG-CDK12 kinase domain with CCNK-3xHA; assay type: cell-based; conditions: 293T, HQ461 8 hr; not with G731E or G731R
# T1 construct: ORFs encoding residues 715–1052 of CDK12 and residues 693–1030 of CDK13; expressed in transfected cells; host or cells: 293T
# T1 sequence (Q9NYV4 715-1052): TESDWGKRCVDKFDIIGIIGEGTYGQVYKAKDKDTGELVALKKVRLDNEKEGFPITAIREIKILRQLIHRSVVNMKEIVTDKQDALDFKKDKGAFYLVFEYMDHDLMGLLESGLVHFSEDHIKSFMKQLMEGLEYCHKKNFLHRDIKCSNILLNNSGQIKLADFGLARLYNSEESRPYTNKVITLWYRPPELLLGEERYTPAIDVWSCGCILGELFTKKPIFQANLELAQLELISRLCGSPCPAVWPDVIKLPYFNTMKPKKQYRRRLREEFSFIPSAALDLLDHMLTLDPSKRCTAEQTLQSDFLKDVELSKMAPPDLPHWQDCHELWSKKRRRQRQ
# T1 sequence (O75909 whole entry partner, the tested form may be a part): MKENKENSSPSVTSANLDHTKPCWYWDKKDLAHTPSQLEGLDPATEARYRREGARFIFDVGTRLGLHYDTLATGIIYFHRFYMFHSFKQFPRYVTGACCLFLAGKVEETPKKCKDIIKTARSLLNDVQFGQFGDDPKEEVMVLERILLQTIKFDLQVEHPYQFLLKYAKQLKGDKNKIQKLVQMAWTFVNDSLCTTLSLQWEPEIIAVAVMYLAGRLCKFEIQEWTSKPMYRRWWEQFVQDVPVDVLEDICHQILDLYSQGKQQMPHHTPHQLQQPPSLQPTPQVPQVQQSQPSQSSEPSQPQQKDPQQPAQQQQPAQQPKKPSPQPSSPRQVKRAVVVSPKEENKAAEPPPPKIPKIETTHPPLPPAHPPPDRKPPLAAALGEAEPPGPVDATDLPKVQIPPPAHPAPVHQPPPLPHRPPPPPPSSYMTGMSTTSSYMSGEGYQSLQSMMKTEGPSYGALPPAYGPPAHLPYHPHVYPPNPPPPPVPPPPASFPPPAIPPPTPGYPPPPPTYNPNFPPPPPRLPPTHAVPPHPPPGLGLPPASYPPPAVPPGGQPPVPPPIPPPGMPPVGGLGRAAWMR
# T1 sequence (Q16531 2-1140 partner limits assumed): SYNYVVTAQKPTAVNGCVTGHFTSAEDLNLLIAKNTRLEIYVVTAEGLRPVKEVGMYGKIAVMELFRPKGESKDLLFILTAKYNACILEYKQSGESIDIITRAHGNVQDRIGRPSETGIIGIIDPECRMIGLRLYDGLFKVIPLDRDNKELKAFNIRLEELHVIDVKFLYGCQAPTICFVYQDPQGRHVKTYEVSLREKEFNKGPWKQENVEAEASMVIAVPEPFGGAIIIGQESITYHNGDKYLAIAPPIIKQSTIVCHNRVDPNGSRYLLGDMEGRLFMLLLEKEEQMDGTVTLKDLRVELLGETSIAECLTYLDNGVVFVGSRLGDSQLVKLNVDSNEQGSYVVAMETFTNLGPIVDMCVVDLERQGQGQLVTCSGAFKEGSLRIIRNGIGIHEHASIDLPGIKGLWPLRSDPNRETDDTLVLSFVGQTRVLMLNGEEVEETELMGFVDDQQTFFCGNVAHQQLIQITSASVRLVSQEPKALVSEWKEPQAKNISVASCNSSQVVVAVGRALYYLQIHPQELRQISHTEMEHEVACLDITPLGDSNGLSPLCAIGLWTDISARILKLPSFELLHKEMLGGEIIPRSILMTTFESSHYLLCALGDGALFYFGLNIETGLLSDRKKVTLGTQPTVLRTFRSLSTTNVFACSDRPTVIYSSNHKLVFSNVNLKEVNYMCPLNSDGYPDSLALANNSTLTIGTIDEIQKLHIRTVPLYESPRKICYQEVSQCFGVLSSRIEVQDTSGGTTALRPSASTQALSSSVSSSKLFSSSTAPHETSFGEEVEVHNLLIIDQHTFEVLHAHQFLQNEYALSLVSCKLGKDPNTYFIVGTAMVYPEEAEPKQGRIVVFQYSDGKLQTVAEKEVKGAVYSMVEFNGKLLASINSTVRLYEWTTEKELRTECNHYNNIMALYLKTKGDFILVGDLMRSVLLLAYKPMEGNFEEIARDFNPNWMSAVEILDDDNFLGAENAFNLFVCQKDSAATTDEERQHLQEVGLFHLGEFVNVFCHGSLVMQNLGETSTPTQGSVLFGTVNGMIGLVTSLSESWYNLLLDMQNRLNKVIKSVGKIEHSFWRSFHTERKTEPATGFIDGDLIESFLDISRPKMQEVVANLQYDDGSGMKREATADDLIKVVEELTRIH
# Description: ORFs encoding residues 715–1052 of CDK12 and residues 693–1030 of CDK13 were cloned into a pCDNA3.1-N-3xFLAG vector. For setting up cells for co-transfection, 0.6 million 293 T cells were seeded per well in 6-well tissue-culture plates and allowed to attach to plates overnight. These cells were then transfected with 50 ng of pCDNA3.1-3xFLAG-CDK12/13 kinase domain, 50 ng of pCDNA3.1-CCNK-3xHA, and 400 ng of the empty pCDNA3.1 vector. Twenty-four hours post transfection, cells were treated with HQ461 for 8 hr, and lysates were collected for western blotting with anti-FLAG and anti-HA antibodies.
# [3] = test system: POLII CTD Serine 2 phosphorylation; assay: Western blotting of POLII CTD Serine 2 phosphorylation; assay type: cell-based, Homo sapiens
# Description: Standard SDS-PAGE and western blotting procedures were used with the following modifications. For preparation of total lysates, cells were rinsed with DPBS to remove residual medium and then lysed in 20 mM HEPES-NaOH, pH 8.0, 10 mM NaCl, 2 mM MgCl2, 1% SDS freshly supplemented with 0.5 units/µL of benzonase and 1x cOmplete, Mini, EDTA-free protease inhibitor cocktail (Roche, Bazel, Switzerland). Protein concentrations of the resulting lysates were quantified by the BCA method. Between 30 to 60 µg of proteins were resolved on SDS-PAGE and transferred to nitrocellulose membranes with a pore size of 0.5 μm. Membranes were blocked in 5% nonfat milk PBST (0.1% v/v Tween-20) for 30 min before blotting with antibodies. […]
smiles,measurement,setting,value
"Cc1cccc(Nc2nc(CC(=O)Nc3ncc(C)s3)cs2)n1 [HQ461, 2-(2-((6-methylpyridin-2-yl)amino)thiazol-4-yl)-N-(5-methylthiazol-2-yl)acetamide]",CellTiter-Glo (ATP),A549 cells; HQ461 1.6e-6 M,1.74E+06 and 1.39E+06 and 1.50E+06
same,CellTiter-Glo (ATP),A549 cells; HQ461 3.12e-6 M,360450 and 439670 and 341920
same,CellTiter-Glo (ATP),A549 cells; HQ461 6.31e-6 M,173530 and 234990 and 251210
same,CellTiter-Glo (ATP),A549 cells; HQ461 1.25e-5 M,146290 and 177880 and 172140
same,CellTiter-Glo (ATP),A549 cells; HQ461 2.51e-5 M,65570 and 94080 and 92090
same,CellTiter-Glo (ATP),A549 cells; HQ461 2.00E-07 M,4.81E+06 and 4.79E+06 and 4.78E+06
same,CellTiter-Glo (ATP),A549 cells; HQ461 3.96E-07 M,3.92E+06 and 3.86E+06 and 3.80E+06
same,CellTiter-Glo (ATP),A549 cells; HQ461 4.80E-08 M,4.68E+06 and 4.34E+06 and 4.06E+06
same,CellTiter-Glo (ATP),A549 cells; HQ461 7.99E-07 M,3.98E+06 and 3.60E+06 and 3.16E+06
same,CellTiter-Glo (ATP),A549 cells; HQ461 9.99E-08 M,3.91E+06 and 3.89E+06 and 3.96E+06
same,IC50,"A549 cells; Homo sapiens, A549, 72 hr, CellTiter-Glo",1.3 µM
same,IC50,"[1]; CDK12 G731E, read-out: IC50 on the viability of A549 cells stably expressing G731E mutant CDK12",16.9 µM
same,IC50,"[1]; CDK12 G731R, read-out: IC50 on the viability of A549 cells stably expressing G731R mutant CDK12",22.9 µM
same,IC50,[1]; read-out: IC50 on the viability of A549 cells stably expressing wild-type CDK12,1.3 µM
same,reduction of the CCNK protein level,"CCNK; A549, 4 hr treatment",> 8 fold
same,CCNK protein level in cells with CDK12 G731E or G731R mutation,CCNK; A549 CDK12 G731E/G731R cells,not affected
same,CCNK destabilization with co-expressed wild-type CDK12 kinase domain,[2],sufficient for mediating HQ461-dependent destabilization of CCNK
same,inhibitory effect on POLII CTD Serine 2 phosphorylation,[3]; A549 with CDK12 G731E or G731R mutation,abolished
same,POLII CTD Serine 2 phosphorylation,[3]; parental A549,reduced POLII CTD Serine 2 phosphorylation
